According to publication PMC12715762, “Discovery of VU6052254: A Novel, Potent M1 Positive Allosteric Modulator” (ACS Chemical Neuroscience, 2025):
Converted amounts (≈) assume the structure as drawn.

Experiments:
[1] = tested on: hM2-5; assay: muscarinic selectivity calcium mobilization (human M2-5); format: cell-based
Experimental: Procedures for Biological Experiments
Calcium mobilization assays:
All functional cell-based assays were performed in stable Chinese Hamster Ovary (CHO) cell lines constitutively expressing human M5 or human M1 receptors. For full muscarinic selectivity, CHO cells expressing human M3, human M2 plus Gqi5 or human M4 plus Gqi5 were used. Cells were plated at 15,000 cells per 20 µL per well in black 384-well, TC-treated, clear-bottomed plates (Greiner) in Ham’s F12 medium supplemented with 10% FBS and 20 mM HEPES. Cells were incubated overnight at 37 °C under 5% CO2. […] The compound plate, cell plate, and plates containing EC20 and EC80 acetylcholine concentrations were placed in a Hamamatsu FDSS 6000 or 7000 kinetic imaging plate reader equipped to measure Ex480/Em540 fluorescence. […] After 2 seconds of collecting baseline fluorescence, 20 µL of the compound solutions were added to the cell plate. […] The fluorescence signal was collected for a total of 300 seconds. […] Data were imported and analyzed in Dotmatics Informatics software. by normalizing all data in the individual kinetic traces to the initial fluorescence read. The magnitude of each agonist addition was then determined and normalized to the average maximum response. […] The IC50 determined using the EC80 of acetylcholine is the value reported. […]

[2] = predicted hepatic clearance, hepatic microsomes (rat); format: in vitro ADME; settings: rat (r)
Experimental: (§1) After a 5 min preincubation, the reaction was initiated by the addition of NADPH (1 mM). At selected time intervals (0, 3, 7, 15, 25, and 45 min), aliquots were taken and subsequently placed into a 96-well plate containing cold acetonitrile with internal standard (50 ng/mL carbamazepine). Plates were then centrifuged at 3000 rcf (4 °C) for 10 min, and the supernatant was transferred to a separate 96-well plate and diluted 1:1 with water for LC/MS/MS analysis. The in vitro half-life ( 1/2, min, Eq. 1), intrinsic clearance (CLint, mL/min/kg, Eq. 2), and subsequent predicted hepatic clearance (CLhep, mL/min/kg, Eq. 3) was determined employing the […]
(§2) where k represents the slope from linear regression analysis of the natural log percent remaining of a test compound as a function of incubation time […]
(§3) (2) CLint = in vitroT x mg microsomes x gram liver x kg body wt ascale-up factors: of 20 (human) or 45 (rat) […]
(§4) where Qh (hepatic blood flow, mL/min/kg) is 21 (human) or 70 (rat).
(§5) LC/MS/MS Bioanalysis of Samples from Plasma Protein Binding and Intrinsic Clearance […]
(§6) Samples were analyzed on a Thermo Electron TSQ Quantum Ultra triple quad mass spectrometer (San Jose, CA) via electrospray ionization (ESI) with two Themo Electron Accella pumps (San Jose, CA), and a Leap Technologies CTC PAL autosampler (Carrboro, NC). […]

[3] = tested on: rM2-5; assay: muscarinic selectivity calcium mobilization (rat M2-5); format: cell-based
[4] = predicted hepatic clearance (dog); format: in vitro ADME; settings: dog (d)
Experimental: as §1, §2, §3, §4, §5, §6

[5] = molecular target: T1, mM1 (Mus musculus, UniProt P12657); assay: M1 PAM calcium mobilization assay (mouse); format: cell-based; settings: mouse M1, n = 1
T1 construct: expressed in transfected cells
T1 sequence (P12657 1-460): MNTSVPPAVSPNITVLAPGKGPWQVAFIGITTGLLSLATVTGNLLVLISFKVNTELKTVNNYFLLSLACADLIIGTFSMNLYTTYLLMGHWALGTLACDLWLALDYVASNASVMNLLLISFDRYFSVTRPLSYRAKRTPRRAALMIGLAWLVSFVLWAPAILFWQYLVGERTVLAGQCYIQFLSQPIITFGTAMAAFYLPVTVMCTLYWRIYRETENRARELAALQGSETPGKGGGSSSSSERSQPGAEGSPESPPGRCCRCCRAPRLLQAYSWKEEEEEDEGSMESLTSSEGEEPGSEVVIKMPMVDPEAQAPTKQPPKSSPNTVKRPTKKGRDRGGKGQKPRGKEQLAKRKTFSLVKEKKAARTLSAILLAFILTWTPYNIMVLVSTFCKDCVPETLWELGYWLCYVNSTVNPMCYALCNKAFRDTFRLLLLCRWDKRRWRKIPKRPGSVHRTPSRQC

[6] = solubility in simulated gastric fluid (FaSSGF); format: physicochemical; settings: fassgf or other biorelevant

| SMILES | EC50 [1] [µM] | Predicted CLhep [2] [mL/min/kg] | EC50 [3] [µM] | Predicted CLhep [4] [mL/min/kg] | EC50 [5] [µM] | mM1 PAM, percentage in brackets (AChmax) [5] [%] | solubility [6] [µg/mL] |
| --- | --- | --- | --- | --- | --- | --- | --- |
| Cn1cc2c(-c3cc(F)c(CN4Cc5ncccc5C4=O)c(F)c3)cccc2n1 [compound 1, reference compound] | > 30 | 5.7 | > 30 | 5.5 | 0.728 | 56 | 36 (≈ 92.2 µM) |
| Cn1cc2c(-c3cc(F)c(CN4Cc5ncccc5C4=O)c(F)c3)ccc(C(C)(C)O)c2n1 [compound 7] | > 30 | 35.5 | > 30 | 8.0 | 0.08 | 63 | 24.8 (≈ 55.3 µM) |
